What was measured:
human D3 receptor [1] = target: T1, human D3 receptor (Homo sapiens, UniProt P35462); assay: radioligand binding with [^3H]spiperone, D3; conditions: ratio of Ki values
T1 construct: expressed in transfected cells; host or cells: Chinese hamster ovary (CHO) cells, membranes
Outline: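 Membranes from CHO cell lines expressing each human receptor subtype incubated with [^3H]spiperone. Test compounds spanned subnanomolar to micromolar concentrations in competition format.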

human D2long receptor = target: T2, human D2long receptor (Homo sapiens, UniProt P14416); conditions: published derivatives with carboxamide alkylene spacer; read-out: Ki D2lo; cited from earlier work
T2 construct: expressed in transfected cells; host or cells: Chinese hamster ovary (CHO) cells, membranes
T2 sequence (P14416 whole entry): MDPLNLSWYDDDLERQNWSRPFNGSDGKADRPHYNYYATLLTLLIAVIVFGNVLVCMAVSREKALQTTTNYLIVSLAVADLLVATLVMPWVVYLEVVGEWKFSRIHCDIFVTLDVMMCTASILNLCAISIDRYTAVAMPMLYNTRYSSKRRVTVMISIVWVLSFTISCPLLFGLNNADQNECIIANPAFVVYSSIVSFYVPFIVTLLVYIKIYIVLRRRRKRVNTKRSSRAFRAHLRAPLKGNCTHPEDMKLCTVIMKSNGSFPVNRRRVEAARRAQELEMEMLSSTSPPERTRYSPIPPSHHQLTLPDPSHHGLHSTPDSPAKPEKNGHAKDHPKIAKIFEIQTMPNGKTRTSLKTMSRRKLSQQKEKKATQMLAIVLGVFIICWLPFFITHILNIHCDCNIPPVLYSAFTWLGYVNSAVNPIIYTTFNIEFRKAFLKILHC

human D2short receptor = target: T3, human D2short receptor (Homo sapiens, UniProt P14416); conditions: published derivatives with carboxamide alkylene spacer; read-out: Ki D2sh; cited from earlier work
T3 construct: expressed in transfected cells; host or cells: Chinese hamster ovary (CHO) cells, membranes
T3 sequence (P14416 1-414 isoform P14416-2): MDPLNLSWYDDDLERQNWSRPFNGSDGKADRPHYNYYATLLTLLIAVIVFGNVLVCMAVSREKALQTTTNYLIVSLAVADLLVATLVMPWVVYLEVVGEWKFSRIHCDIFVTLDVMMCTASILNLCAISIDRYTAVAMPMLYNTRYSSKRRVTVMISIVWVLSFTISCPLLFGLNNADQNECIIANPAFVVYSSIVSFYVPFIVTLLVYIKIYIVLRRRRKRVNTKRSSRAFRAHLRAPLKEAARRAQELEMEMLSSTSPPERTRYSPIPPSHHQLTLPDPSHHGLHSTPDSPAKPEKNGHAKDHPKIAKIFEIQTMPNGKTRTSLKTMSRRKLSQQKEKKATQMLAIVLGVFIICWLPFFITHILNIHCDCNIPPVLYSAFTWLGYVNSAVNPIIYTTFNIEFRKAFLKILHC

human D3 receptor [2] = target: T1, human D3 receptor; conditions: published derivatives with carboxamide alkylene spacer; cited from earlier work
human D4.4 receptor = target: T4, human D4.4 receptor (Homo sapiens, UniProt P21917); conditions: published derivatives with carboxamide alkylene spacer; cited from earlier work
T4 construct: expressed in transfected cells; host or cells: Chinese hamster ovary (CHO) cells, membranes
T4 sequence (P21917 1-419): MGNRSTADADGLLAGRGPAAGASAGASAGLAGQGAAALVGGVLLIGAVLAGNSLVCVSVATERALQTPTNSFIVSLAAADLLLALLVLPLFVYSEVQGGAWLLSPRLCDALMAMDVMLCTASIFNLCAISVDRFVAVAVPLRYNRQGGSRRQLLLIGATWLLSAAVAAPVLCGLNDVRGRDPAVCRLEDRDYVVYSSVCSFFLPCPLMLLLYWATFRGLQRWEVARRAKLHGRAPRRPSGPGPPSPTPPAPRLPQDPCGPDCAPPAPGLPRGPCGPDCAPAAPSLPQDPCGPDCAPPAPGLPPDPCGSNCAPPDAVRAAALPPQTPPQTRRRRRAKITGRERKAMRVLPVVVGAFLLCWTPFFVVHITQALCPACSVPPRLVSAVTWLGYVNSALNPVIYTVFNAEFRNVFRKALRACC

5-HT1A receptor = target: T5, 5-HT1A receptor (Sus scrofa, UniProt A0A4X1UTF5); conditions: published derivatives with carboxamide alkylene spacer; cited from earlier work
T5 construct: membrane preparations from porcine cortical material; from tissue; host or cells: porcine cerebral cortex membranes
T5 sequence (A0A4X1UTF5 1-422): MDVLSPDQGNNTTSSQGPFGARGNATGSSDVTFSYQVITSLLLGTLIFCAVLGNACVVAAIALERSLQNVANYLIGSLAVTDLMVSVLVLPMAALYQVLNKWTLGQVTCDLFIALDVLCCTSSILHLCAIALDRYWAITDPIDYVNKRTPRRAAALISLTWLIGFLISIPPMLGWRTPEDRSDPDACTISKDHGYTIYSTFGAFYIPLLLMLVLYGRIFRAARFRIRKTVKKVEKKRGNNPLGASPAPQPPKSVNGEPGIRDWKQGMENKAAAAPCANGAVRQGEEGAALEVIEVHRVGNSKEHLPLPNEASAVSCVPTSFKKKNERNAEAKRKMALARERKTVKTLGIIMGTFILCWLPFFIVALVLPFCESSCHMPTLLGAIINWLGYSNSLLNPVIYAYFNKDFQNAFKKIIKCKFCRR

5-HT2 receptor = target: T6, 5-HT2 receptor (Sus scrofa, UniProt P50129); conditions: published derivatives with carboxamide alkylene spacer; cited from earlier work
T6 construct: membrane preparations from porcine cortical material; from tissue; host or cells: porcine cerebral cortex membranes
T6 sequence (P50129 whole entry): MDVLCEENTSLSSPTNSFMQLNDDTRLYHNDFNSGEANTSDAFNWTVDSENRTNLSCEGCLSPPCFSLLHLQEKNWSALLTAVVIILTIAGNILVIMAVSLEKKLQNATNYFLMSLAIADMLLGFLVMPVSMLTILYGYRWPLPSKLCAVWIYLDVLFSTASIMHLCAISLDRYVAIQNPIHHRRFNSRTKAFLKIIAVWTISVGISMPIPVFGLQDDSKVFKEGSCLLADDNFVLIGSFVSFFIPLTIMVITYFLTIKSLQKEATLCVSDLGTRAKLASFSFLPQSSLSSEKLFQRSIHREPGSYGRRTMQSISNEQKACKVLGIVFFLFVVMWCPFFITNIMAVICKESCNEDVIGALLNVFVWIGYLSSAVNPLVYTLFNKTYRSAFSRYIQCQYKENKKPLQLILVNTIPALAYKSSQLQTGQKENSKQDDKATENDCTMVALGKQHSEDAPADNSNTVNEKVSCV

T1 sequence (P35462 whole entry): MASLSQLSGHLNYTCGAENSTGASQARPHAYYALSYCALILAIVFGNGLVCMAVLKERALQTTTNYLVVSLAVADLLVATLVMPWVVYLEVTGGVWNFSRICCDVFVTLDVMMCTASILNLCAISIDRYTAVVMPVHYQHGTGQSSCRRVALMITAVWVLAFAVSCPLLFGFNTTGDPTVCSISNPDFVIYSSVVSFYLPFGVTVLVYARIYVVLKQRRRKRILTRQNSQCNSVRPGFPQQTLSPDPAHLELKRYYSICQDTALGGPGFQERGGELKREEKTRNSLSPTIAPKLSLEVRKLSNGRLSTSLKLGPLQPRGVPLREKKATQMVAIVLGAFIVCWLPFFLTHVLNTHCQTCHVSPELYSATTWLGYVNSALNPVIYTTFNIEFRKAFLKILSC

SMILES | ratio D2lo/D3 (human D3 receptor [1]) | Ki (human D2long receptor) | Ki (human D2short receptor) | Ki (human D3 receptor [2]) | Ki (human D4.4 receptor) | Ki (5-HT1A receptor) | Ki (5-HT2 receptor)
O=C(NCCCCN1CCN(c2cccc(Cl)c2Cl)CC1)c1ccn2nccc2c1 [Example B26] | 340 | 86 nM | 51 nM | 0.25 nM | 210 nM | 28 nM | 44 nM
COc1ccccc1N1CCN(CCCCNC(=O)c2ccn3ncc(Br)c3c2)CC1 [Example B28] | 15 | 180 nM | 89 nM | 12 nM | 59 nM | 6.4 nM | 240 nM
COc1ccccc1N1CCN(CCCCNC(=O)c2ccn3ncc(Cl)c3c2)CC1 [Example B29] | 16 | 220 nM | 96 nM | 14 nM | 77 nM | 13 nM | 420 nM
COc1ccccc1N1CCN(CCCCNC(=O)c2ccc3nccn3c2)CC1 [Example B93] | 11 | 82 nM | 30 nM | 7.8 nM | 140 nM | 12 nM | 950 nM

— patent US20100168125A1, “INDOLIZINES AND AZA-ANALOG DERIVATIVES THEREOF AS CNS ACTIVE COMPOUNDS” (priority 2007, published 2010)
